In brackets after ≈: the same amount, converted by molar mass.
What was measured:
[1] = target: T1, Replicase polyprotein 1ab (Severe acute respiratory syndrome-related coronavirus, UniProt P0C6X7); assay: Inhibition of SARS coronavirus main proteinase 3C-like protease
[2] = target: T1, Replicase polyprotein 1ab; assay: Binding affinity to SARS coronavirus main proteinase 3C-like protease
[3] = target: T2, Prostaglandin G/H synthase 1 (Homo sapiens, UniProt P23219); assay: Inhibition of human recombinant COX1 expressed in Sf9 cell microsomes assessed as reduction in conversion of arachidonic acid to PGE2 incubated for 5 mins by HTRF assay
T2 sequence (P23219 whole entry): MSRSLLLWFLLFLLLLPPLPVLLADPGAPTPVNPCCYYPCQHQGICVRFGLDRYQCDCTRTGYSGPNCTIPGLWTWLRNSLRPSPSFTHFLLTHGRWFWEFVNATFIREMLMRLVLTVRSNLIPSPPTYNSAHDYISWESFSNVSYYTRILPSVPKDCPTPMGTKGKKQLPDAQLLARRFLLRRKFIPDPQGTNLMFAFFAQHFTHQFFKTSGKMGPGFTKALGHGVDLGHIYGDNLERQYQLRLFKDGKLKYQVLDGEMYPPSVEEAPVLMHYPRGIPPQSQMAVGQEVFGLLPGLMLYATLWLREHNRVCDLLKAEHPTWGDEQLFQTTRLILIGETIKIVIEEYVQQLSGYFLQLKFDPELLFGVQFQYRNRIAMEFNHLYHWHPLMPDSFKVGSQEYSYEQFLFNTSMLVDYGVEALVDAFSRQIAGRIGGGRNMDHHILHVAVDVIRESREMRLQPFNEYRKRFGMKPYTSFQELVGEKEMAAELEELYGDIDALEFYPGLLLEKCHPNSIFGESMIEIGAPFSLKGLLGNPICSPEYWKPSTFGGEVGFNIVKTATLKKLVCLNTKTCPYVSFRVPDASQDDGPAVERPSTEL

[4] = target: Beta-secretase 1 (Homo sapiens, UniProt P56817); assay: Inhibition of BACE1 (unknown origin)
Beta-secretase 1, sequence (P56817 whole entry): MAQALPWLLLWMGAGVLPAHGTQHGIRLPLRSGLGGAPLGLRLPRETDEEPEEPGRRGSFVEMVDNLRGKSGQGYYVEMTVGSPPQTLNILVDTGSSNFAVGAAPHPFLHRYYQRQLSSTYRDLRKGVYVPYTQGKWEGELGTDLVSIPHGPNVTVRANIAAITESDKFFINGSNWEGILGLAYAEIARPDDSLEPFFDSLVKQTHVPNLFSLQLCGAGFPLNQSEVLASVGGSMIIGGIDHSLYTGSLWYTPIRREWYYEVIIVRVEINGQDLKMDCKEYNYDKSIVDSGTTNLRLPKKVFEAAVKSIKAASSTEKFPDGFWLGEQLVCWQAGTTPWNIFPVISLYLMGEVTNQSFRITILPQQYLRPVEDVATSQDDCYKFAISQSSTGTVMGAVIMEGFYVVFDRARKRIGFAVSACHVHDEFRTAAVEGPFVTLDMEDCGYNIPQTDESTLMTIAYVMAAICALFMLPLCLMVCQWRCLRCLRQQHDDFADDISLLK

[5] = target: T2, Prostaglandin G/H synthase 1; assay: Inhibition of human recombinant COX1 expressed in Sf9 cell microsomes assessed as reduction in conversion of arachidonic acid to PGE2 at 250 uM incubated for 5 mins by HTRF assay
[6] = target: Acetylcholinesterase (Homo sapiens, UniProt P22303); assay: Inhibition of AChE (unknown origin)
Acetylcholinesterase, sequence (P22303 whole entry): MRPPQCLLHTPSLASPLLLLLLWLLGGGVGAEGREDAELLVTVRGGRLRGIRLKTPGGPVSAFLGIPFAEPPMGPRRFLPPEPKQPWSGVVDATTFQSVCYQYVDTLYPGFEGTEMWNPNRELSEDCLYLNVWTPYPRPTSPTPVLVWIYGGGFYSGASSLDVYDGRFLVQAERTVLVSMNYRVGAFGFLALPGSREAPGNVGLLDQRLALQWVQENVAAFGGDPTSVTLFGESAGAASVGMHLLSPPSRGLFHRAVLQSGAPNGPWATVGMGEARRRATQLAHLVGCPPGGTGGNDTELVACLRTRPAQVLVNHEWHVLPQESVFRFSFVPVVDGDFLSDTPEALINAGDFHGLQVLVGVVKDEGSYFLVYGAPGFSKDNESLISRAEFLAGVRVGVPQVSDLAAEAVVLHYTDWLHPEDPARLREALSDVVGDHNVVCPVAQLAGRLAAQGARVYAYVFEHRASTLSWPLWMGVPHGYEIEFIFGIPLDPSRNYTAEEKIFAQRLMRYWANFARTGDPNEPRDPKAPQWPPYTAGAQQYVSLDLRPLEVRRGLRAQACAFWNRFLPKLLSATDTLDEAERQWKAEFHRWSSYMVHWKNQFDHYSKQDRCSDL

[7] = test system: Mycobacterium tuberculosis; assay: Antimicrobial activity against Mycobacterium tuberculosis str. Erdman assessed as complete inhibition of growth incubated for 14 days by microplate assay; type: functional; details: Erdman = ATCC 35801, 336 h
[8] = test system: Mycobacterium tuberculosis; assay: Inhibition of Mycobacterium tuberculosis InhA at 80 uM using DD-CoA and NADH

| SMILES | IC50 [1] [µM] | Ki [2] [µM] | also measured |
| --- | --- | --- | --- |
| CC(=O)N[C@@H](CCC(=O)O)C(=O)N[C@@H](CO)C(=O)N[C@H](C(=O)N[C@@H](CC(C)C)C(=O)N[C@H](C=O)CCC(N)=O)[C@@H](C)O | 7.5 | 8 | – |
| O=C(O)c1ccccc1O [SALICYLIC ACID] | – | – | IC50 [3]: 500 µM |
| CC(=O)N[C@@H](Cc1cnc[nH]1)C(=O)N[C@@H](CO)C(=O)N[C@H](C(=O)N[C@@H](CC(C)C)C(=O)N[C@H](C=O)CCC(N)=O)[C@@H](C)O | > 50 | – | – |
| CC(=O)N[C@@H](CC(=O)O)C(=O)N[C@@H](CO)C(=O)N[C@H](C(=O)N[C@@H](CC(C)C)C(=O)N[C@H](C=O)CCC(N)=O)[C@@H](C)O | 10 | – | – |
| COc1cc2ncnc(Nc3ccc(F)c(Cl)c3)c2cc1OCCCN1CCOCC1 [GEFITINIB] | – | – | IC50 [4]: 20 µM |
| CC(=O)N[C@@H](CC(N)=O)C(=O)N[C@@H](CO)C(=O)N[C@H](C(=O)N[C@@H](CO)C(=O)N[C@H](C=O)CCC(N)=O)[C@@H](C)O | 7.5 | 40 | – |
| Cc1ccc(C)c(OCCCC(C)(C)C(=O)O)c1 | – | – | inhibition [5]: 18% |
| CC(C)(Oc1ccc(Cl)cc1)C(=O)O | – | – | inhibition [5]: 14% |
| Cc1ccc(Nc2nccc(N(C)c3ccc4c(C)n(C)nc4c3)n2)cc1S(N)(=O)=O [PAZOPANIB] | – | – | IC50 [6]: 0.93 µM |
| CC(=O)N[C@@H](CC(=O)O)C(=O)N[C@@H](CO)C(=O)N[C@@H](Cc1ccccc1)C(=O)N[C@@H](CC(=O)O)C(=O)N[C@@H](CCC(N)=O)C(=O)O | – | 41 | – |
| CC(=O)N[C@@H](CC(N)=O)C(=O)N[C@@H](CO)C(=O)N[C@@H](Cc1ccccc1)C(=O)N[C@@H](CO)C(=O)N[C@@H](CCC(N)=O)C(=O)O | – | 72 | – |
| CCN(CC)C(=O)/C(C#N)=C/c1cc(O)c(O)c([N+](=O)[O-])c1 [ENTACAPONE] | – | – | MIC99 [7]: 260 µM (≈ 79.4 µg/mL); inhibition [8]: 47% |
| CC(=O)N[C@@H](CC(N)=O)C(=O)N[C@@H](CO)C(=O)N[C@H](C(=O)N[C@@H](CC(=O)O)C(=O)N[C@H](C=O)CCC(N)=O)[C@@H](C)O | 20 | – | – |

Reference: ChEMBL document CHEMBL3817815, “Impact of Binding Site Comparisons on Medicinal Chemistry and Rational Molecular Design” (J Med Chem, 2016)
